Measured values from patent publication US20230240290A1, “USE OF (Z)-3-HEXENYL ESTERS AND METHOD FOR PROTECTING PLANTS AGAINST PESTS” (UNIVERSITAT POLITÈCNICA DE VALÈNCIA, priority 2020, published 2023).

Tests used:
[1] = test system: NPR1 (salicylic acid pathway); test: Transcriptional response of NPR1 in Carrizo citrange plants exposed to the volatile; format: in vivo; details: intact Carrizo citrange plants exposed 24 h; n=6
[2] = Emission kinetics of the dispenser (gravimetric method); format: physicochemical; details: 4-mL LD polyethylene vial loaded with 4 ml, field conditions; slope of the fitted model
Description: Two different types of polymeric emitters were used to test the activation level that different emission levels of (Z)-3-hexenyl propionate can provide: 4-mL low-density (LD) polyethylene vial and 4-mL high-density (HD) polyethylene vial. The highest emission level (5 mg/day) was achieved through previous laboratory studies with LD dispensers loaded with 20 mg of the pure substance. The lowest emission level (0.01 mg/day) was provided by HD vials loaded with a 1:100 mixture of (Z)-3-hexenyl propionate and paraffinic oil (0.02:2; g:g). The emission kinetics of the emitters used during the experiments was controlled by studying weight loss (gravimetric method). Additional dispensers were placed in the same environmental conditions, measuring their weight weekly with a precision scale (0.0001 g). The difference in weight recorded in each period will be the emitted quantity of the substance for each type of dispenser. To obtain the mean emission level of each dispenser, the recorded weights (y) are related to the aging time (x) using a multiple regression analysis.
As mentioned earlier, 2 zones were selected in each of the greenhouses in which, on 22 Feb. 2019, a dispenser (4-ml low-density (LD) polyethylene vial) loaded with 4 ml of (Z)-3-hexenyl was hung every 20 m^2 in one of them, and the other with the same surface area was used as a control treatment. […]

[3] = test system: PIN2 (marker gene for the JA signaling pathway); test: Field (commercial greenhouse) assay, transcriptional response of PIN2 in tomato plants; format: in vivo, tomato cv Raf; details: LD dispenser every 20 m2, at 30 and 60 days
Description: To know the behavior of the dispensers loaded with (Z)-3-hexenyl propionate under real cultivation conditions, four commercial greenhouses for tomato cv Raf located in Xilxes (Castellón province), with a history of problems with T. absoluta contamination at the end of winter, were selected. An experimental design of randomized blocks was carried out where each greenhouse was considered a block with two treatments per block and 4 repetitions per treatment. […]
Twenty plants randomly chosen by repetition were sampled weekly for 11 weeks, beginning 30 Jan. […] First, the number of leaflets infested by T. absoluta per plant was counted. Then the number of N. tenuis (adults and nymphs) throughout the apical third of each plant (leaves, flowers and shoots) was counted. Following the methodology described above, 6 samples were taken from the apical part of each plant per repetition, and these samples were immediately introduced into liquid nitrogen to quantify the expression of the PR1 and PIN2 genes (described in Example 1 and Example 2). The expression of these genes was quantified one day before, 4, and 8 weeks after hanging the dispensers in the greenhouses.

[4] = test system: SI-PI-II (marker for plant proteinase inhibitors); test: Transcriptional response of SI-PI-II in tomato plants exposed to volatiles (laboratory); format: in vivo, Solanum lycopersicum cv. Moneymaker; details: intact tomato plants exposed 24 h; filter paper, 1:10,000 ester:methanol; n=8
Description: Moneymaker tomato plants were used. Two weeks after seed germination, the seedlings were individually transplanted into pots (8×8×8 cm). The plants were kept at 25±2° C., with a constant relative humidity of 65%±5% and a 14:10 h (light:dark) photoperiod. Tomato plants that had not received any pesticide treatment at four weeks of age (about 20 cm tall) were used. All volatiles used were obtained from Sigma-Aldrich (St. Louis, Mo., USA). Each volatile was exposed by using a 2×2 cm piece of filter paper on which 10 μl of a solution containing the corresponding volatile at a concentration of 1:10,000 [(Z)-3-hexenyl ester:methanol] was impregnated as an emitting source of the corresponding volatile (Pérez-Hedo, M. et al. Biocontrol, 63: 203-213 (2018)).
To activate a plant, two pieces of filter paper impregnated with the volatile were placed at the bottom of a 30×30×30 cm plastic cage (BugDorm-1 Insect Tents; MegaView Science Co., Ltd, Taichung, Taiwan) into which the plant was introduced. A control treatment was carried out in which the two pieces of filter paper were impregnated with 10 μl of methanol. Eight repetitions per treatment were performed. The plants of the treatments were kept exposed to the volatile without disturbing for 24 hours in separate and isolated climatic chambers to avoid any interference from the volatiles and were kept at 25±2° C., 65±10% RH, and a 14:10 h (L:D) photoperiod. […]
The methodology followed for extracting and quantifying gene expression was described by Pérez-Hedo et al. Journal of Pest Science 3: 543-554 (2015). The primers used were forward primer: 5′-[…]-3′ (SEQ ID NO: 1) and reverse primer: 5′-[…]-3′ (SEQ ID NO: 2) for the quantification of PR1, forward primer: 5′-[…]-3′ (SEQ ID NO: 3) and reverse primer: 5′-[…]-3′ (SEQ ID NO: 4) for SI-PI-I, and forward primer: 5′-[…]-3′ (SEQ ID NO: 5) and reverse primer: 5′-[…]-3′ (SEQ ID NO: 6) for the SI-PI-II gene. […]

CC/C=C\CCOC(=O)CC [(Z)-3-hexenyl propanoate]
Transcriptional response of NPR1 compared to control [1]: significantly overexpressed | Mean emission rate from the dispenser [2]: 12.2 mg/day | Expression of PIN2 compared to plants in the control zone [3]: significantly higher | Transcriptional response of SI-PI-II compared to the control [4]: significantly overexpressed
